Structures are written as SMILES.

Experiment [1] deals with Escherichia coli (E. coli DSM 682). Nature of the experiment: Bactericidal activity of cleaner/disinfecting formulations, DIN EN 1276-2010, dirty conditions. Type of experiment: cell-based. To be noted: 0.3% bovine albumin, 35° C., 5 min contact time. The procedure: (§1) For biological activity testing, the following microorganisms were used: • Escherichia coli(E. coli DSM 682) • Salmonella enterica subsp. enterica (S enterica ATCC 10708)
(§2) The imidazolium polymer of example 1 (imidazolium polymer 1) and benzalkonium chloride (BAC) were formulated into various dilutable concentrated hard-surface cleaners. The finished formulations were pre-dissolved 1:200 in standardized hard water (DIN EN 1276-2010) and then diluted to 80% by adding 1 ml of the inoculate and 1 ml of bovine albumin solution to 8 ml of the pre-dissolved cleaner, so that in-test a dilution of 1:250 was obtained. The amounts relate to active substance.
(§3) Antimicrobial testing of the above formulations in 1:250 dilution was done according to European Standard (DIN EN 1276-2010) under dirty conditions, i.e. additional soiling of 0.3% bovine albumin at 35° C. and 5 min contact time. Neutralization was done using the Saponin-containing neutralizer as described in DIN EN 1276 (30 g/l Polysorbate 80+30 g/l Saponin+3 g/l Lecithin). Results are documented in the table below as logarithmic reduction (Ig R) in comparison to the number of microorganisms used for the test.
The imidazolium polymer of example 1 (imidazolium polymer 1) and didecyldimethylammonium chloride (DDAC) were formulated into various dilutable concentrated hard-surface cleaners. The finished formulations were pre-dissolved 1:200 in standardized hard water (DIN EN 1276-2010) and then diluted to 80% by adding 1 ml of the inoculate and 1 ml of bovine albumin solution to 8 ml of the pre-dissolved cleaner, so that in-test a dilution of 1:250 was obtained. The amounts relate to active substance.
Antimicrobial testing of the above formulations in 1:250 dilution was done according to European Standard (DIN EN 1276-2010) under dirty conditions, i.e. additional soiling of 0.3% bovine albumin at 35° C. and 5 min contact time. Neutralization was done using the Saponin-containing neutralizer as described in DIN EN 1276 (30 g/l Polysorbate 80+30 g/I Saponin+3 g/I Lecithin). Results are documented in the table below as logarithmic reduction (Ig R) in comparison to the number of microorganisms used for the test.

The test system of experiment [2] is Salmonella enterica subsp. enterica (S enterica ATCC 10708). The description is as above. Type of experiment: cell-based. To be noted: BAC 40 ppm in cleaner diluted 1:250; 0.3% bovine albumin, 35° C., 5 min contact time. The procedure:
as §1, §2, §3

With `CCCCCCCCCCCC[N+](C)(C)Cc1ccccc1.[Cl-]` [BAC, lauryl dimethyl benzyl ammonium chloride], the entries for the “E. coli logarithmic reduction (lg R)” value in experiment [1] (BAC 20 ppm in cleaner diluted 1:250) and in experiment [1] (BAC 40 ppm in cleaner diluted 1:250) were 0.5 lg R and 2.7 lg R, respectively. Further, the “S. enterica logarithmic reduction (lg R)” value in experiment [2] was 0.5 lg R.

As to `CCCCCCCCCC[N+](C)(C)CCCCCCCCCC.[Cl-]` [DDAC, didecyldimethylammonium chloride], the figures for the “E. coli logarithmic reduction (lg R)” value in experiment [1] (DDAC 10 ppm in cleaner diluted 1:250) and in experiment [1] (DDAC 20 ppm in cleaner diluted 1:250) were 0.2 lg R and 1.2 lg R, respectively.

Source of the values: US20250176548A1, “POLYMERIC IMIDAZOLIUM COMPOUNDS FOR ENHANCING THE ACTIVITY OF ANTIMICROBIAL AGENTS” (BASF SE, priority 2022, published 2025).
